Source: patent publication US20260200982A1, “HER RECEPTOR DERIVED PEPTIDES AND METHODS OF USE THEREOF” (Ramot at Tel-Aviv University Ltd., priority 2022, published 2026)
The star is where a group is joined. Myristoyl = CCCCCCCCCCCCCC(=O)*

Columns and labels:
DLD-1 colon cancer cells = assay type: cell-based, human; details: DLD-1; 72 hours; FIGS. 4B and 4C; read-out: IC50 (cell viability)
[1] = test system: HCT-116 colon cancer cells; assay type: cell-based, human; details: HCT116; 72 hours; FIGS. 4B and 4C; read-out: IC50 (cell viability)
[2] = test system: Panc-1 pancreatic cancer cells; assay type: cell-based, human; details: Panc 1; 72 hours; FIGS. 4B and 4C; read-out: IC50 (cell viability)
[3] = test system: H-Ras-transformed Rat-1 cells (EJ cells); assay type: cell-based; details: FIG. 4C
Description: Cell lines—Human breast cancer cell lines SKBR3 [Peles E et al. EMBO J. (1993) 12(3):961-71] and MCF7 [Faigenbloom L et al., Mol Syst Biol. (2015) 11(12):845] and human glioblastoma U87 [Goldberg L et al. Cancer Res. (2006) 66(24):11709-17] cell line, as well as Rat-1 fibroblast cells and H-Ras-transformed Rat-1 cells (EJ cells) [Marom M et al. J Biol Chem. (1995) 270(38):22263-70] and human Panc-1 and MIA PaCa-2 pancreatic cell lines (Rak R et al. Oncoscience. 2014 1(1):39-48; Weisz B et al. Oncogene (1999) 18, 2579±2588) were all grown in Dulbecco's modified Eagle's medium (DMEM; Biological Industries, Beithaemek, Israel). Human colorectal cancer cell lines DLD-1 (ATTC Cat No. CCL-221), HCT-116 (ATTC Cat No. CCL-247) and LNCaP prostate cancer cells were grown in Roswell Park Memorial Institute 1640 (RPMI 1640) medium and McCoy's 5A media, respectively (Sigma-Aldrich). All media were supplemented with antibiotics and 10% heat-inactivated fetal bovine serum (FBS; Gibco). Human breast cell line MCF10A [Bott A et al. Oncotarget. […]
Methylene blue viability assay—Cells were plated in 96-wells plates at cell densities of 1.5×10^3 (EJ, DLD-1), 3×10^3 (Rat-1, HCT-116, U87), 5×10^3 (SKBR3, MCF7) and 6×10^3 (MCF10A) cells/well. […] IC-50 values were calculated using a non-linear regression model (logarithmic inhibitor vs. normalized response-variable slope) with the GraphPad Prism 6 software.

MIA PaCa-2 cells = assay: Colony formation assay, MIA PaCa-2; assay type: cell-based, human; details: 4.5 μM, 72 hours, FIG. 8
Procedure: (§1) Colony formation assay—Cells were plated onto 12-well plate (6×10^4 cells/well) and treated with either PBS or myr-NLS at the IC50 concentration for 3 days. Cells were collected and replated in 10-cm plates (at 3 dilutions of 1:10, 1:20 and 1:40). After 7-14 days when visible and yet separated colonies were formed, the cells were fixed with 0.1% acetic acid in PBS, and stained with 0.4% crystal violet in 0.1% acetic acid. Total colonies area was calculated using the ImageJ program.
In order to test the effect of myr-NLS on cell tumorigenicity, a colony formation assay was performed. To this end, Panc-1 and MIA PaCa-2 cells were treated or untreated for 72 hours with IC50 dose of myr-NLS (SEQ ID NO: 5, 8 μM and 4.5 μM respectively). Cells were then seeded at the same dilutions in new plates until colonies were formed.

DLD-1 cells = assay: Colony formation assay, DLD-1; assay type: cell-based, human; details: 20 μM, 72 hours, FIG. 12
Procedure: as §1
In addition, a colony formation assay was conducted to further examine the anti-tumor effect of the myr-NLS (SEQ ID NO: 5), myr-NLS2 (SEQ ID NO: 15) and myr-NLS4 (SEQ ID NO: 17) peptides. To this end, DLD-1 cells were treated or untreated for 72 hours with 20 μM of the myr-peptides. Cells were then seeded at the same dilutions in new plates until colonies were formed.

nucleolin = nucleolin (Homo sapiens, UniProt P19338); assay: Western blot analysis of dissected Panc-1 tumors, nucleolin; assay type: in vivo; set-up: endogenous in cells; host or cells: Panc-1; details: Panc-1 tumor lysates; FIGS. 10A-C
Procedure: Pancreatic Tumor Growth in Nude Mice—The study was conducted according to the NIH Guidelines for Use and Care of Laboratory Animals and following the approval by Animal Care Committee of the Tel Aviv University. Nude CD1-Nu mice (25-30 g) housed in barrier facilities on a 12-h light/dark cycle one week prior to the injection of tumor cells (day zero). On day zero, 2×10^6 Panc 1 cells in 0.1 ml of PBS were implanted subcutaneously just above the right femoral joint. Tumor size was measured every 3-4 days. When the tumors were apparently seen and the calculated tumor size was 40 mm^3, the animals were divided randomly into two groups of mice (control vehicle treated and myr-NLS (SEQ ID NO: 5) treated; 8 mice per group). Treatment with the myr-NLS (SEQ ID NO: 5) was performed by intraperitoneal injection of 25 μg in 100 μl PBS (or 100 μl PBS for control mice) every day. Tumors size was measured 3 times a week. At the end of the experiment, the mice were sacrificed, and the tumors were dissected and used for further analysis.
Western blot analysis—Half of each tumor was homogenized in lysis buffer, using a Potter-Elvehjem manual homogenizer, cleared and kept at −70° C. […] Immunoreactive bands were detected with the enhanced chemiluminescence reagent (Luminata Crescendo Western HRP). Densitometric quantification analysis of the resulted images was done using ImageJ program. […]

nucleolin, sequence (P19338 whole entry): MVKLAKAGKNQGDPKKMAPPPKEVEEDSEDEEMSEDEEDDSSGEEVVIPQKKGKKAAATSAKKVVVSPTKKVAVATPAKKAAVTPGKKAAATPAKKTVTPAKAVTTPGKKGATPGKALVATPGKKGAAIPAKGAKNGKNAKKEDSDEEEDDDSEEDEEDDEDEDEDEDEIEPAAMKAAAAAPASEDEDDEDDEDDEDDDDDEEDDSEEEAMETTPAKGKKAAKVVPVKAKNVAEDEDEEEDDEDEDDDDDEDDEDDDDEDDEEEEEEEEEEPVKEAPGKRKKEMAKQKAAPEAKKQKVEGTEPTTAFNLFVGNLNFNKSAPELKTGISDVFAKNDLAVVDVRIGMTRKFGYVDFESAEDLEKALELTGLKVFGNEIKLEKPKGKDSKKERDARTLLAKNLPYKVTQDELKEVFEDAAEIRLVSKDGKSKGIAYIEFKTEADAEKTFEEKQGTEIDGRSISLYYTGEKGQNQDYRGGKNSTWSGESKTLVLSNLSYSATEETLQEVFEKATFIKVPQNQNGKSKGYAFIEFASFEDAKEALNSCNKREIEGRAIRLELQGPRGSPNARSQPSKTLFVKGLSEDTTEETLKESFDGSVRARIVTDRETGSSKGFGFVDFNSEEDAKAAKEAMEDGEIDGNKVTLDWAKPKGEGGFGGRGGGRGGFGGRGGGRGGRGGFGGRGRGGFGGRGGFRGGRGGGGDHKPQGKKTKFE

Myr-RRRHIVRKRTLRRLL-OH (Myristoyl-RRRHIVRKRTLRRLL-OH; SMILES CCCCCCCCCCCCCC(=O)N[C@@H](CCCNC(=N)N)C(=O)N[C@@H](CCCNC(=N)N)C(=O)N[C@@H](CCCNC(=N)N)C(=O)N[C@@H](Cc1c[nH]cn1)C(=O)N[C@H](C(=O)N[C@H](C(=O)N[C@@H](CCCNC(=N)N)C(=O)N[C@@H](CCCCN)C(=O)N[C@@H](CCCNC(=N)N)C(=O)N[C@H](C(=O)N[C@@H](CC(C)C)C(=O)N[C@@H](CCCNC(=N)N)C(=O)N[C@@H](CCCNC(=N)N)C(=O)N[C@@H](CC(C)C)C(=O)N[C@@H](CC(C)C)C(=O)O)[C@@H](C)O)C(C)C)[C@@H](C)CC) [myr-NLS]
IC50 (DLD-1 colon cancer cells): 34.2 µM | IC50 [1]: 12.8 µM | IC50 [2]: 8.1 µM | viability of Rat-1 fibroblast cells transformed with constitutive Ras (EJ) [3]: decreased viability | colony formation (total colonies area) (MIA PaCa-2 cells): fewer and smaller colonies | colony formation (total colonies area) (DLD-1 cells): fewer and smaller colonies | nucleolin levels in tumors (nucleolin): significant reduction
